Activity calls are given as the source filed them. The calls are words filed in the database; no cut-off is given here.
Assays:
[1] = target: Mu-type opioid receptor (Rattus norvegicus, UniProt P33535); experiment: Displacement of [3H]-DAMGO from Wistar rat mu opioid receptor incubated for 1 hr by liquid scintillation counting method
[2] = target: Delta-type opioid receptor (Rattus norvegicus, UniProt P33533); experiment: Displacement of [3H]-DPDPE from Wistar rat delta opioid receptor incubated for 3 hrs by liquid scintillation counting method
Delta-type opioid receptor, sequence (P33533 whole entry): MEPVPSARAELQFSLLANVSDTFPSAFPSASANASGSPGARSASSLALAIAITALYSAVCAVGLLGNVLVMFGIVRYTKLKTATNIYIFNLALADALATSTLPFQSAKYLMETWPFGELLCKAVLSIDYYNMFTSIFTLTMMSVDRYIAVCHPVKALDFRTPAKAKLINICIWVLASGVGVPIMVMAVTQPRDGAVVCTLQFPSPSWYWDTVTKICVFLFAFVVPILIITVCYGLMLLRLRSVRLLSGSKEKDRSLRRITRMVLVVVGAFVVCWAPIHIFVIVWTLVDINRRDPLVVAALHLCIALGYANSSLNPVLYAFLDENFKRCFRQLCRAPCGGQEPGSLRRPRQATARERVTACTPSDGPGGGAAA

[3] = target: T1, Mu-type opioid receptor (Homo sapiens, UniProt P35372); experiment: Agonist activity at mu opioid receptor (unknown origin) expressed in human HEK293 cells assessed as […] in cAMP accumulation using [3H]-cAMP as substrate measured after 30mins by liquid scintillation counting method relative to control; format: functional, cell-based
T1 sequence (P35372 whole entry): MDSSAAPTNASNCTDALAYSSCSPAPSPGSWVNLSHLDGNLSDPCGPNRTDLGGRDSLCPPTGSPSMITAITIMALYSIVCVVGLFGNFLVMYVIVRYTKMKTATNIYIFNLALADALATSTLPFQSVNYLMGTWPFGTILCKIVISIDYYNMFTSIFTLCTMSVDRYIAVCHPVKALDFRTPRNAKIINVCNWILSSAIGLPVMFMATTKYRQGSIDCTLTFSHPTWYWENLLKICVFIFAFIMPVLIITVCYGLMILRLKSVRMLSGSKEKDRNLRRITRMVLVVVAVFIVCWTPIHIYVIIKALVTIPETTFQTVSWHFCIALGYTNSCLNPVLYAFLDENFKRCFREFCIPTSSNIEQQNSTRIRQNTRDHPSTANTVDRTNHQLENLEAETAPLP

[4] = target: T1, Mu-type opioid receptor; experiment: Agonist activity at mu opioid receptor (unknown origin) expressed in human HEK293 cells assessed as […] in cAMP accumulation using [3H]-cAMP as substrate measured after 30mins by liquid scintillation counting method; format: functional, cell-based
[5] = test system: Mus musculus; experiment: Antinociceptive activity in kunming mouse models of formalin-induced hyperalgesia assessed as reduction in time spent on paw shaking inflammatory phase at 4 nmol, icv measured during phase 2 at 15 to 30 mins relative to control; format: functional; design: scale not given: the % may be the effect or the level left
[6] = test system: Mus musculus; experiment: Antinociceptive activity in kunming mouse models of formalin-induced hyperalgesia assessed as reduction in time spent on paw shaking inflammatory phase at 0.04 nmol, icv measured during phase 1 at 0 to 5 mins relative to control; format: functional; design: scale not given: the % may be the effect or the level left
[7] = test system: Mus musculus; experiment: Antinociceptive activity in icv administered kunming mouse models of formalin-induced hyperalgesia assessed reduction in time spent on paw shaking during inflammatory phase 2 at 15 to 30 mins; format: functional; design: scale not given: the % may be the effect or the level left
[8] = test system: Mus musculus; experiment: Antinociceptive activity in kunming mouse models assessed as maximum possible effect at 0.4 nmol, icv measured from 5 to 60 mins by warm water tail-flick assay relative to control; format: functional
[9] = test system: Mus musculus; experiment: Antinociceptive activity in kunming mouse models of formalin-induced hyperalgesia assessed as reduction in time spent on paw shaking inflammatory phase at 4 nmol, icv measured during phase 1 at 0 to 5 mins relative to control; format: functional; design: scale not given: the % may be the effect or the level left
[10] = test system: Mus musculus; experiment: Antinociceptive activity in kunming mouse models of formalin-induced hyperalgesia assessed as reduction in pain response of paw licking inflammatory phase at 4 nmol, icv measured during phase 1 at 0 to 5 mins relative to control; format: functional; design: scale not given: the % may be the effect or the level left
[11] = test system: Mus musculus; experiment: Antinociceptive activity in kunming mouse models of formalin-induced hyperalgesia assessed as reduction in pain response of paw licking inflammatory phase at 4 nmol, icv measured during phase 2 at 15 to 30 mins relative to control; format: functional; design: scale not given: the % may be the effect or the level left
[12] = test system: Mus musculus; experiment: Antinociceptive activity in kunming mouse models assessed as effective dose after icv administration measured from 5 to 60 mins by warm water tail-flick assay; format: functional
[13] = Half life in Kunming mouse brain homogenate at 10^-2 mol/L by RP-HPLC analysis; format: ADME, tissue-based
[14] = test system: Mus musculus; experiment: Antinociceptive activity in kunming mouse models of formalin-induced hyperalgesia assessed as reduction in time spent on paw biting inflammatory phase at 4 nmol, icv measured during phase 1 at 0 to 5 mins relative to control; format: functional; design: scale not given: the % may be the effect or the level left
[15] = test system: Mus musculus; experiment: Antinociceptive activity in icv administered kunming mouse models of formalin-induced hyperalgesia assessed reduction in time spent on paw biting during inflammatory phase 2 at 15 to 30 mins; format: functional; design: scale not given: the % may be the effect or the level left
[16] = test system: Mus musculus; experiment: Antinociceptive activity in kunming mouse models assessed as maximum possible effect at 4 nmol, icv measured from 5 to 60 mins by warm water tail-flick assay relative to control; format: functional
[17] = test system: Mus musculus; experiment: Antinociceptive activity in kunming mouse models of formalin-induced hyperalgesia assessed as reduction in time spent on paw biting inflammatory phase at 4 nmol, icv measured during phase 2 at 15 to 30 mins relative to control; format: functional; design: scale not given: the % may be the effect or the level left
[18] = test system: Mus musculus; experiment: Antinociceptive activity in kunming mouse models of acetic-acid-induced writhing assessed as inhibition of writhing numbers at 0.04 nmol, icv pretreated for 5 mins followed by acetic-acid treatment and measured for 20 mins relative to control; format: functional; design: scale not given: the % may be the effect or the level left
[19] = Half life in Kunming mouse serum at 10^-2 mol/L by RP-HPLC analysis; format: ADME, cell-free
[20] = test system: Mus musculus; experiment: Antinociceptive activity in kunming mouse models of formalin-induced hyperalgesia assessed as reduction in pain response of paw licking inflammatory phase at 0.04 nmol, icv measured during phase 1 at 0 to 5 mins relative to control; format: functional; design: scale not given: the % may be the effect or the level left
[21] = test system: Mus musculus; experiment: Antinociceptive activity in icv administered kunming mouse models of formalin-induced hyperalgesia assessed reduction in pain response of paw licking during inflammatory phase 2 at 15 to 30 mins; format: functional, organism-based
[22] = test system: Mus musculus; experiment: Antinociceptive activity in kunming mouse models of formalin-induced hyperalgesia assessed as reduction in time spent on paw biting inflammatory phase at 0.04 nmol, icv measured during phase 1 at 0 to 5 mins relative to control; format: functional; design: scale not given: the % may be the effect or the level left
[23] = Toxicity in kunming mouse assessed as reduction in number of fecal pellet at 1 to 10 mg/kg, iv after 1 hr; format: organism-based; conditions: in vivo
[24] = test system: Mus musculus; experiment: Antinociceptive activity in kunming mouse models assessed as effective dose after iv administration by warm water tail-flick assay; format: functional
[25] = test system: Mus musculus; experiment: Antinociceptive activity in kunming mouse models assessed as maximum possible effect at 10 mg/kg, iv measured after 5 to 60 mins co-treated with naloxone by warm water tail-flick assay; format: functional, organism-based
[26] = Neurotoxicity in kunming mouse models assessed as effect in locomotor activity at 10 mg/kg,iv measured up to 60 mins by rotarod test; format: toxicity, organism-based; conditions: in vivo, 1 h
[27] = test system: Mus musculus; experiment: Antinociceptive activity in kunming mouse models of acetic-acid-induced writhing assessed as inhibition of writhing numbers at 3 mg/kg, iv pretreated for 5 mins followed by acetic-acid treatment and measured for 20 mins; format: functional, organism-based
[28] = Toxicity in kunming mouse assessed as reduction in fecal dry weight at 1 to 10 mg/kg, iv after 1 hr; format: organism-based; conditions: in vivo
[29] = test system: Mus musculus; experiment: Antinociceptive activity in iv dosed kunming mouse models of formalin-induced hyperalgesia assessed as reduction in pain response of paw licking measured up to 60 mins; format: functional, organism-based
[30] = test system: Mus musculus; experiment: Antinociceptive activity in kunming mouse models assessed as maximum possible effect at 3 mg/kg, iv measured after 5 to 60 mins by warm water tail-flick assay; format: functional

Mu-type opioid receptor (Rattus norvegicus, UniProt P33535), sequence (P33535 whole entry): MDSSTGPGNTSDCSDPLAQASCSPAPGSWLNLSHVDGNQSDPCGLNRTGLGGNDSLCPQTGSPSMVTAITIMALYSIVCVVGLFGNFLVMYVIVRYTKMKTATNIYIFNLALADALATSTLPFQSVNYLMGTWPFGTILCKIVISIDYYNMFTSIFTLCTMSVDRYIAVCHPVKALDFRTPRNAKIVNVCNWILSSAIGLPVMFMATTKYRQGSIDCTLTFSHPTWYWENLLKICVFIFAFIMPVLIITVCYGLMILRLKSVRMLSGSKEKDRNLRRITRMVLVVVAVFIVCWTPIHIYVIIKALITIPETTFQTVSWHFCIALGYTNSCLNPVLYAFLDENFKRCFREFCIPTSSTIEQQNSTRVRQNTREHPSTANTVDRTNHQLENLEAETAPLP

C=C(C(N)=O)[C@@H](NC(=O)[C@H](Cc1c[nH]c2ccccc12)NC(=O)[C@@H](CN)NC(=O)[C@@H](N)Cc1ccc(O)cc1)c1ccco1
Ki [1]: 5.47 nM | Ki [2]: > 10000 nM | Emax [3]: 81.5% | EC50 [4]: 192 nM

C=C(C(N)=O)[C@@H](NC(=O)[C@H](Cc1c[nH]c2ccccc12)NC(=O)[C@@H](CCN)NC(=O)[C@@H](N)Cc1ccc(O)cc1)c1ccco1
Ki [1]: 32.4 nM | Ki [2]: > 10000 nM | Emax [3]: 75.5% | EC50 [4]: 161 nM

C=C(C(N)=O)[C@@H](NC(=O)[C@H](Cc1ccccc1)NC(=O)[C@@H](CN)NC(=O)[C@@H](N)Cc1ccc(O)cc1)c1ccco1
Ki [1]: 53 nM | Ki [2]: > 10000 nM | Emax [3]: 62.3% | EC50 [4]: 1500 nM

C=C(C(N)=O)[C@@H](NC(=O)[C@H](Cc1c[nH]c2ccccc12)NC(=O)[C@@H](CCCCN)NC(=O)[C@@H](N)Cc1ccc(O)cc1)c1ccco1
Ki [1]: 172 nM | Ki [2]: > 10000 nM | Emax [3]: 65.8% | EC50 [4]: 1130 nM

C=C(C(N)=O)[C@@H](NC(=O)[C@H](Cc1c[nH]c2ccccc12)NC(=O)[C@@H](CCCCNC(C)=O)NC(=O)[C@@H](N)Cc1ccc(O)cc1)c1ccco1
Ki [1]: 9.21 nM | Ki [2]: 3580 nM | Emax [3]: 37.5% | EC50 [4]: 934 nM

C=C(C(N)=O)[C@@H](NC(=O)[C@H](Cc1c[nH]c2ccccc12)NC(=O)[C@@H](CCCNC(=N)N)NC(=O)[C@@H](N)Cc1ccc(O)cc1)c1ccco1
Activity [5]: 100% | Activity [6]: 100% | Activity [7]: 100% | Ki [1]: 4.9 nM | MPE [8]: 94.7% | Ki [2]: 955 nM | Activity [9]: 100% | Activity [10]: 100% | Activity [11]: 100% | ED50 [12]: 0.025 nmol | Emax [3]: 62.7% | half-life [13]: > 5 h | Activity [14]: 100% | Activity [15]: 100% | Activity [16]: 100% | Activity [17]: 100% | Activity [18]: 100% | half-life [19]: > 5 h | Activity [20]: 100% | Activity [21]: Dose-dependent effect | EC50 [4]: 221 nM | Activity [22]: 100%

C=C(C(N)=O)[C@@H](NC(=O)[C@H](Cc1ccccc1)NC(=O)[C@@H](CCCNC(N)=O)NC(=O)[C@@H](N)Cc1ccc(O)cc1)c1ccco1
Activity [5]: 100% | Activity [6]: 100% | Activity [23]: Toxic | Activity [7]: 100% | Ki [1]: 8.72 nM | ED50 [24]: 3.84 nmol | MPE [8]: 84% | Ki [2]: > 10000 nM | Activity [9]: 100% | Activity [10]: 100% | Activity [11]: 100% | Activity [25]: inactive | ED50 [12]: 0.043 nmol | Activity [26]: Non-Toxic | Emax [3]: 76.7% | Activity [27]: Active | half-life [13]: > 5 h | Activity [28]: Toxic | Activity [14]: 100% | Activity [15]: 100% | Activity [16]: 100% | Activity [17]: 100% | Activity [18]: 100% | half-life [19]: > 5 h | Activity [29]: Dose-dependent effect | MPE [30]: 34.8% | Activity [20]: 100% | Activity [21]: Dose-dependent effect | EC50 [4]: 128 nM | Activity [22]: 100%

C=C(C(N)=O)[C@@H](NC(=O)[C@H](Cc1ccccc1)NC(=O)[C@@H](CCCNC(=N)N)NC(=O)[C@@H](N)Cc1ccc(O)cc1)c1ccco1
Ki [1]: 19.2 nM | MPE [8]: 86.9% | Ki [2]: 922 nM | ED50 [12]: 0.054 nmol | Emax [3]: 74.2% | half-life [13]: > 5 h | Activity [16]: 100% | half-life [19]: > 5 h | EC50 [4]: 370 nM

C=C(C(N)=O)[C@@H](NC(=O)[C@H](Cc1ccccc1)NC(=O)[C@@H](CNC(C)=O)NC(=O)[C@@H](N)Cc1ccc(O)cc1)c1ccco1
Ki [1]: 22.4 nM | Ki [2]: > 10000 nM | Emax [3]: 78.2% | EC50 [4]: 1360 nM

NC(=O)[C@H](Cc1ccccc1)NC(=O)[C@H](Cc1c[nH]c2ccccc12)NC(=O)[C@@H]1CCCN1C(=O)[C@@H](N)Cc1ccc(O)cc1 [ENDOMORPHIN-1]
MPE [8]: 42.1% | Activity [16]: 100%

C=C(C(N)=O)[C@@H](NC(=O)[C@H](Cc1c[nH]c2ccccc12)NC(=O)[C@@H](CCCN)NC(=O)[C@@H](N)Cc1ccc(O)cc1)c1ccco1
Ki [1]: 437 nM | Ki [2]: 320 nM | Emax [3]: 65.6% | EC50 [4]: 89.3 nM

C=C(C(N)=O)[C@@H](NC(=O)[C@H](Cc1c[nH]c2ccccc12)NC(=O)[C@@H](CNC(C)=O)NC(=O)[C@@H](N)Cc1ccc(O)cc1)c1ccco1
Ki [1]: 4.54 nM | Ki [2]: > 10000 nM | Emax [3]: 73.2% | EC50 [4]: 272 nM

C=C(C(N)=O)[C@@H](NC(=O)[C@H](Cc1c[nH]c2ccccc12)NC(=O)[C@@H](CCCCNC(=N)N)NC(=O)[C@@H](N)Cc1ccc(O)cc1)c1ccco1
Ki [1]: 405 nM | Ki [2]: > 10000 nM | Emax [3]: 76.5% | EC50 [4]: 341 nM

CN1CC[C@]23c4c5ccc(O)c4O[C@H]2[C@@H](O)C=C[C@H]3[C@H]1C5 [MORPHINE]
MPE [30]: 53.6%

NC(=O)[C@H](Cc1ccccc1)NC(=O)[C@H](Cc1ccccc1)NC(=O)[C@@H]1CCCN1C(=O)[C@@H](N)Cc1ccc(O)cc1 [ENDOMORPHIN 2]
ED50 [12]: 0.96 nmol | Emax [3]: 66.5% | half-life [13]: 0.207 h | Activity [16]: 100% | half-life [19]: 0.212 h

C=C(C(N)=O)[C@@H](NC(=O)[C@H](Cc1c[nH]c2ccccc12)NC(=O)[C@@H](CCC)NC(=O)[C@@H](N)Cc1ccc(O)cc1)c1ccco1
Ki [1]: 34.4 nM | Ki [2]: 2660 nM | Emax [3]: 67.6% | EC50 [4]: 337 nM

— ChEMBL document CHEMBL4627340, “Design, synthesis, and biological activity of new endomorphin analogs with multi-site modifications” (Bioorg Med Chem, 2020)
